One assay has as its target PI3Kalpha (Homo sapiens (Human), UniProt P42336). The assay is described as follows: Inhibition of PI3Kalpha-induced PIP-2 phosphorylation (filter-binding assay). The assay is classed as biochemical. The settings on record: 33P-ATP, p85alpha/His-p110alpha, read-out: IC50 PI3Kα. From the text:
Inhibition of PI3Kalpha-Induced PIP-2 Phosphorylation
This PI3Kalpha assay provides an IC50 value indicative of the activity of the compounds to inhibit PI3 kinase alpha activity. Inhibition of PI3 kinase would be expected to be indicative of activity in treating conditions of excessive or anomalous cell proliferation, such as cancers. See also J. A. Engelman, Nature Reviews Cancer, 2009, 9, 550-562; A. Carnero, Expert Opin. Investig. Drugs, 2009, 18, 1265-1277 and P. Liu et al., Nature Reviews Drug Discovery, 2009, 8, 627-64.
Method Type: Filter-Binding-Assay
Aliquoted in desired amounts and stored at −80° C. Final assay concentration 25 ng/well • Phosphotyrosin PDGFRbeta-peptide H-CGG-pY-[…]-pY-VPMLDM-NH2 was synthesized by Jerini Peptide Technologies (JPT) and used in a final conc. of 1.7 μM (stock 100 μM prepared in Assay buffer with DTT, aliquoted in desired amounts and stored at −80° C.) • Cold ATP (from Sigma; A-7699), 100 μM stock solution in H2O, use 1 μM final concentration in assay • [33P]-ATP, 370 MBq/ml from Amersham (#AH9968), use 0.5 μCi/well (10 mCi/ml) • Clear 96-well plates from Greiner (#655 162) • Filter plates: Perkin Elmer UniFilter GF/B #6005177 • Microscint 0 (from Perkin Elmer, #6013611) 2. Assay Procedure
The substrate-containing lipid vesicles are dissolved to a concentration of 0.637 mg lipid blend/ml assay buffer (with BSA, freshly added) in 50 ml Falcon->keep on ice, followed by ultrasonication (pulse of 15 sec followed by a pause of 10 sec, 4×). Compounds are serially diluted in assay buffer+6% DMSO and […] of each dilution is added per well of a 96-well plate (compounds are tested in duplicates) and mixed with 30 μl of the lipid vesicles containing PDGFR-Peptide ([…]) and PI3K alpha (25 ng/well final). The mixture is then incubated for 20 minutes at room temperature. Subsequently, 20 μl of assay buffer containing […] cold ATP and 0.5 μCi/20 μl 33P-ATP are added. The plates are then incubated at room temperature for 120 minutes (shaking with 300 rpm).
The reaction mix is transferred onto filter plates using “filtermate harvester” from Packard: filter plates are rinsed with PBS, then the reaction mix is filtered onto the filter plate, washed 5 times with PBS and are allowed to dry for 30-60 minutes at 50° C.
The plate bottom is sealed with Perkin Elmer white adhesive foil and 25 μl/well Microscint( ) are added, the top is covered with transparent adhesive foil and the plate is measured with Wallac Trilux 1450 Microbeta Counter.
As positive control serve wells containing vehicle controls (1% DMSO in assay buffer), showing non-inhibited kinase activity (high values). Wells containing assay buffer instead of enzyme can serve as control for background activity (low values).
Calculate IC50 values using the Smiley program (based on GrapPad Prism)

The next assay concerns MCF7 cells. Nature of the assay: alamarBlue MCF7 cell assay (antiproliferative/cytotoxicity). The assay is classed as cell-based. The settings on record: MCF7 human breast cancer cell line. From the text:
(§1) The H460, MB453, U87, MCF7 and BT474 alamarBlue cell assays provide EC50 values indicative of the antiproliferative or cytotoxic effects of the compounds to respectively the H460 (human non small cell line cancer), MB-453 (breast cancer cell line), U87 (glioblastoma cell line), MCF7 (breast cancer cell line) and BT474 (breast cancer cell line). As known in the field, antiproliferative or cytotoxic effect against this cell lines would be expected to be indicative of activity in treating lung, breast and brain cancers. See R. Marone R et al. Biochim. Biophys. Acta. 2008 January; 1784(1):159-85. S. Yaguchi et al., J. Natl. Cancer Inst. 2006 Apr. 19; 98(8):545-56.
(§2) Method Type: Antiproliferative/Cytotoxicity
(§3) alamarBlue® is designed to provide a rapid and sensitive measure of cell proliferation and cytotoxicity in various human and animal cell lines. The assay is based on the reduction of alamarBlue in the reducing environment of living (metabolically active) cells. In the presence of added cytotoxic or antiproliferative compounds, the innate metabolic activity ceases.
(§4) AlamarBlue is soluble and stable in culture medium. Measurements are made fluorometrically by exciting at 530-560 nm and measuring emission at 590 nm. In reporting percent alamarBlue reduction by monitoring fluorescence, data are expressed as fluorescence emission intensity units as a function of time of incubation.
(§5) 3. Equipment • 96-well plates, flat bottom (Falcon, Cat. No.: 353072) • 96-well plates, U-shaped (Costar, Cat. No.: 3799) • CO2-Incubator • Microplate Reader, Spectramax Plus, Molecular Devices 4. Typical Procedure • Day 0: Seed 3000 BT-474 cells (IMDM/5% FCS, 1% NEAA, 1% Sodiumpyruvat) in 150 μl medium into a 96-well plate, flat bottom (include mediumblank). Incubate plates at 37° C. in a CO2 incubator overnight. • Day 1: Dilute compounds to a concentration 40 μM->1:3 in medium, 10 dilution steps, in 96-well plates. • Add 50 μl per well of each dilution (total volume per well 200 μl; final conc. of cpds: 10 μM->1:3). If required, test further dilutions. • All concentrations are tested in duplicates. • Controls: Cells w/o cpd. (+50 μl medium/DMSO). • Cells are incubated with compounds for 5-6 days. • Day 6 or 7: Add 25 μl of alamarBlue solution to each well and incubate for 8 hours at 37° C. Measure fluorescence by exciting at 530-560 nm and measuring emission at 590 nm. 5. Evaluation • Subtract average value for medium blank from sample readings • Calculate EC50 using GraphPad Prism (Fifty)
In general terms: Alamar Blue is a resazurin reagent that responds to reducing activity.

The test system of another assay is BT474 cells. Nature of the assay: alamarBlue BT474 cell assay (antiproliferative/cytotoxicity). The settings on record: BT-474 human breast cancer cell line. The assay is classed as cell-based.
Excerpt: as §1, §2, §3, §4, §5

In the next assay the test system is H460 cells. The assay is described as follows: alamarBlue H460 cell assay (antiproliferative/cytotoxicity). It is filed as cell-based. The settings on record: NCI-H460; H460 human lung carcinoma cells.
Excerpt: as §1, §2, §3, §4, §5

The subject of a further assay is MB453 cells. Nature of the assay: alamarBlue MB453 cell assay (antiproliferative/cytotoxicity). It is filed as cell-based. The settings on record: Homo sapiens; MDA MB 453 breast cancer cell line.
Excerpt: as §1, §2, §3, §4, §5

The next assay has as its system U87 cells. The assay is described as follows: U87 cell assay (antiproliferative/cytotoxicity). It is filed as cell-based. The settings on record: U-87MG human glioblastoma cells.
Excerpt: as §1, §2, §3, §4, §5

The results in this text go back to patent US8598157B2, “5-alkynyl-pyridines” (Boehringer Ingelheim International GmbH, priority 2011, dated 2013).

pEC50, pIC50: −log10 of the molar value.

PI3Kalpha, sequence (P42336 whole entry): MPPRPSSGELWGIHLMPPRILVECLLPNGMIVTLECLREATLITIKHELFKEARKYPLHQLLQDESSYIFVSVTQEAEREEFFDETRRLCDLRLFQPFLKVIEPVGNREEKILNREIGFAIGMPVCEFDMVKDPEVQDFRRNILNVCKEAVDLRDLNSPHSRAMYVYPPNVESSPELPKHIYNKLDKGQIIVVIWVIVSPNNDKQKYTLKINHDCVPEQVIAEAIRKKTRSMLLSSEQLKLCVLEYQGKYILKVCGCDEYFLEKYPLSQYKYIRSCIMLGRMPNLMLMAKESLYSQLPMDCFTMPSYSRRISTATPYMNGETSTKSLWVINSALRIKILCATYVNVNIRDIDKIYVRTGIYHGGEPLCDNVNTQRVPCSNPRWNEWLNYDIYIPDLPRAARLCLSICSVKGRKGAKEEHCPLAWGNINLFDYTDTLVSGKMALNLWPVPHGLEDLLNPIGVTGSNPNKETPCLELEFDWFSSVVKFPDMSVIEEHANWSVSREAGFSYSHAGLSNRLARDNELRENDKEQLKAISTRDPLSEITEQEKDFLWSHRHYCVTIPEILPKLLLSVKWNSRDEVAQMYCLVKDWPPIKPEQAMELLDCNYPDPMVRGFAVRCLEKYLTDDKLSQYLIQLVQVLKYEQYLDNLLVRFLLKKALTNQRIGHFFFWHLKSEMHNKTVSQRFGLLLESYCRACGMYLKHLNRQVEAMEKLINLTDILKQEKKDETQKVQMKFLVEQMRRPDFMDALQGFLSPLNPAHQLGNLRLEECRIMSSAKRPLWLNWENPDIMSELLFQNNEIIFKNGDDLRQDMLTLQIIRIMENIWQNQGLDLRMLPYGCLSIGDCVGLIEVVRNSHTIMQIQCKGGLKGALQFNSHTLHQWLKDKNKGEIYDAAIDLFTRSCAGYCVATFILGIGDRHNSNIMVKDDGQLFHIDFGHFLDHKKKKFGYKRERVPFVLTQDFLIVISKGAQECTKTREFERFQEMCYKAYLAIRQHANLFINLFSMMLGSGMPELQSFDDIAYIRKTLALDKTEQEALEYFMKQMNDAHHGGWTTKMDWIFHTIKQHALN

The term pIC50 denotes the negative decadic logarithm of the IC50, by convention in mol/L. What is called pEC50 is the EC50 on a negative log10 scale, so that one unit is a factor of ten. Lower therefore signals a high EC50. On to `Cc1ncnc(N2CCOCC2)c1C#Cc1cncc(NS(C)(=O)=O)c1` [Example I-24, N-[5-(4-Methyl-6-morpholin-4-yl-pyrimidin-5-ylethynyl)-pyridin-3-yl]-methanesulfonamide], for which the pIC50 at PI3Kalpha is 8.40. For the same compound, the values for the pEC50 in the assay with MCF7 cells and in the assay on BT474 cells were 5.96 and 5.63, respectively.
As for `CCc1nc(N)nc(N2CCC(OC)CC2)c1C#Cc1cnc(C)c(NS(C)(=O)=O)c1` [Example I-34, N-{5-[2-Amino-4-ethyl-6-(4-methoxy-piperidin-1-yl)-pyrimidin-5-ylethynyl]-2-methyl-pyridin-3-yl}-methanesulfonamide], the negative logarithm of the IC50 (pIC50) on PI3Kalpha was 8.70. Also, the negative logarithm of the EC50 (pEC50) in the assay on MCF7 cells was 7.13; in the assay with BT474 cells it was 6.36.
On to `COCCN(C)c1ncnc(C)c1C#Cc1cnc(C)c(NS(=O)(=O)c2ccccc2)c1` [Example I-71, N-(5-{4-[(2-Methoxy-ethyl)-methyl-amino]-6-methyl-pyrimidin-5-ylethynyl}-2-methyl-pyridin-3-yl)-benzenesulfonamide], for which, at PI3Kalpha, the negative-log IC50 (pIC50) was 8.30. Moreover, the pEC50 with H460 cells was 5.79; with MB453 cells, 5.68; in the assay with U87 cells it was 5.92; in the assay with BT474 cells it was 5.82.
In the same order, the values of `COC1CCN(c2ncnc(C)c2C#Cc2cnc(C)c(NS(=O)(=O)c3ccccc3)c2)CC1` [Example I-74, N-{5-[4-(4-Methoxy-piperidin-1-yl)-6-methyl-pyrimidin-5-ylethynyl]-2-methyl-pyridin-3-yl}-benzenesulfonamide] are 8.70, 6.15, 6.01, 6.25 and 6.40.
The corresponding values for `COc1ncc(C#Cc2c(C)ncnc2N2CCOCC2)cc1NS(C)(=O)=O` [Example I-81, N-[2-methoxy-5-(4-methyl-6-morpholin-4-yl-pyrimidin-5-ylethynyl)-pyridin-3-yl]-methylsulfonamide] are 9.19, 6.74, 6.63, 6.29 and 7.12.
The corresponding values for `COc1ncc(C#Cc2c(C)ncnc2N2CCOCC2)cc1NS(=O)(=O)c1ccccc1OC(F)(F)F` [Example I-82, 2-Trifluoromethoxy-N-[2-methoxy-5-(4-methyl-6-morpholin-4-yl-pyrimidin-5-ylethynyl)-pyridin-3-yl]-benzenesulfonamide] are 9.30, 7.62, 7.57, 7.30 and 7.60.
With `COc1ncc(C#Cc2c(C)ncnc2N2CCOCC2)cc1NS(=O)(=O)c1ccccc1C(F)(F)F` [Example I-83, 2-Trifluoromethyl-N-[2-methoxy-5-(4-methyl-6-morpholin-4-yl-pyrimidin-5-ylethynyl)-pyridin-3-yl]-benzenesulfonamide], at PI3Kalpha, the pIC50 is 9.36. For the same compound, the negative logarithm of the EC50 (pEC50) is 8.22 with H460 cells, 8.15 with MB453 cells, 7.74 in the assay on U87 cells and 8.22 with BT474 cells.
`COc1ncc(C#Cc2c(C)ncnc2N2CCOCC2)cc1NS(=O)(=O)c1ccc(Cl)cc1` [Example I-84, 4-Chloro-N-[2-methoxy-5-(4-methyl-6-morpholin-4-yl-pyrimidin-5-ylethynyl)-pyridin-3-yl]-benzenesulfonamide]: the negative logarithm of the IC50 (pIC50) on PI3Kalpha was 9.52. Further, the pEC50 in the assay with H460 cells is 7.39; with MB453 cells it was 7.31; in the assay with U87 cells it was 7.62; in the assay on BT474 cells it was 7.32.
In the same order, the values of `COc1ncc(C#Cc2c(C)ncnc2N2CCOCC2)cc1NS(=O)(=O)c1ccc(Cl)s1` [Example I-85, 5-Chloro-N-[2-methoxy-5-(4-methyl-6-morpholin-4-yl-pyrimidin-5-ylethynyl)-pyridin-3-yl]-thiophene-2-sulfonamide] are 9.42, 7.33, 7.40, 7.19 and 7.47.
As to `COc1ncc(C#Cc2c(C)ncnc2N2CCOCC2)cc1NS(=O)(=O)c1cccs1` [Example I-86, N-[2-Methoxy-5-(4-methyl-6-morpholin-4-yl-pyrimidin-5-ylethynyl)-pyridin-3-yl]-thiophene-2-sulfonamide], at PI3Kalpha, the pIC50 was 9.41. The negative-log EC50 (pEC50) was 8.00 in the assay on H460 cells, 7.85 with MB453 cells, 7.38 in the assay with U87 cells and 7.92 in the assay with BT474 cells.
In the same order, the values of `COc1ncc(C#Cc2c(C)ncnc2N2CCOCC2)cc1NS(=O)(=O)c1ccnn1C` [Example I-87, N-[2-methoxy-5-[2-(4-methyl-6-morpholin-4-ylpyrimidin-5-yl)ethynyl]pyridin-3-yl]-2-methylpyrazole-3-sulfonamide] are 9.35, 7.52, 7.82, 7.27 and 7.70.
In the same order, the values of `COc1ncc(C#Cc2c(C)ncnc2N2CCOCC2)cc1NS(=O)(=O)c1cnn(C)c1` [Example I-88, N-[2-methoxy-5-[2-(4-methyl-6-morpholin-4-ylpyrimidin-5-yl)ethynyl]pyridin-3-yl]-1-methylpyrazole-4-sulfonamide] are 9.26, 7.68, 8.10, 7.57 and 7.21.
Take `COc1ncc(C#Cc2c(C)ncnc2N2CCOCC2)cc1NS(=O)(=O)c1ccc(C)o1` [Example I-89, N-[2-methoxy-5-[2-(4-methyl-6-morpholin-4-ylpyrimidin-5-yl)ethynyl]pyridin-3-yl]-5-methylfuran-2-sulfonamide]: at PI3Kalpha, the negative-log IC50 (pIC50) was 9.28. Besides, the pEC50 with H460 cells is 7.59; in the assay on MB453 cells it was 7.42; in the assay on U87 cells, 7.38; in the assay with BT474 cells, 7.20.
